In patent US20110003776A1, “[…] DERIVATIVES, PHARMACEUTICAL COMPOSITIONS AND THERAPEUTIC TREATMENT THEREOF” (TRUSTEES OF BOSTON UNIVERSITY, priority 2009, published 2011):

System: Mycobacterium tuberculosis
Experiment: microplate Alamar Blue assay (MABA) against Mycobacterium tuberculosis
Type: cell-based
Settings: MIC and IC50 values only in Scheme 5
Excerpt: The skilled artisan is well aware of the methods for measuring growth of mycobacteria. A common method of detecting growth in mycobacterial cultures involves the use of […]. An exemplary method is the microplate Alamar Blue assay (MABA), described in Falzari, et al., Antimicrob. Agents Chemother. 2005, 49, 1447-1454 (2005), content of which is herein incorporated by reference.
The library compounds of ureas 7, amides 8, and sulfonamides 9 were screened for activity against Mycobacterium tuberculosis using the microplate Alamar Blue assay (MABA), described in Falzari, et al., Antimicrob. Agents Chemother. 2005, 49, 1447-1454 (2005), content of which is herein incorporated by reference. The MIC values were established after initial positive hits were identified (>80% inhibition at 10 μg/mL). Cytotoxicity assays were performed on Vero cells with IC50 values greater than 50 μg/mL under the assay conditions. Activities were subsequently validated in duplicate assays with resynthesized compound.

**Q.** For `COc1ccc(NC(=O)N2CCc3nc(-c4ccc(OC)cc4C)c4c(c3C2)CO[C@@H](c2ccccc2)C4)cc1` [7{4,2}, (R)-6-(4-Methoxy-2-methylphenyl)-N-(4-methoxyphenyl)-8-phenyl-3,4,7,8-tetrahydro-1H-pyrano[4,3-c][1,6]naphthyridine-2(10H)-carboxamide], which “activity against Mycobacterium tuberculosis” value (shortened to “activity”) is on record?
**A.** significant activities

**Q.** With `COc1ccc(-c2nc3c(c4c2C[C@H](c2ccccc2)OC4)CN(S(=O)(=O)c2ccc(C#N)cc2)CC3)c(C)c1` [9{4,4}] as the compound, how does the “activity” value read?
**A.** significant activities

**Q.** For `COc1ccc(-c2nc3c(c4c2C[C@H](c2ccccc2)OC4)CN(C(=O)N[C@H](C)c2ccccc2)CC3)c(C)c1` [7{4,1}], which “activity” value is on record?
**A.** significant activities
